Consider 21 molecules from patent US20220281821A1, “INDAZOLE COMPOUNDS AND THEIR PHARMACEUTICAL COMPOSITIONS” (Jinan University, priority 2019, published 2022).

Experiment [1] addresses T1, TRKB (Homo sapiens, UniProt Q16620).
T1 construct: purchased life technologies PV3616
Kind of experiment: Z′-LYTE kinase activity assay, TRKB. Conditions: ATP 25 uM. The format is biochemical. The text has this:
(§1) Kinase activity assay: Z′-LYTE™ technology (detection by fluorescence, enzyme-conjugated format, based on the difference in sensitivity of phosphorylated and non-phosphorylated peptides to proteolytic cleavage) was applied, and using the principle of fluorescence resonance energy transfer (FRET), a Z′-LYTE™ FRET peptide substrate (Z′-LYTE™ Tyrosine 1 Peptide Substrate, Invitrogen, PV3190), and a secondary reaction were used to detect the inhibitory activity of the compounds on TRKs (TRK1, TRK2, TRK3) (life technologies, PV3144, PV3616, PV3617).
(§2) Enzymatic reaction: In a 384-well plate, 5 μL of an enzyme-substrate system (50 mM HEPES pH 7.5, 0.01% BRIJ-35, 10 mM MgCl2, 1 mM EGTA, 2 μM Tyr 01 Peptide Substrate) was added and 5 nL of compound (concentration gradient) was transferred thereto by using the echo520 ultramicro liquid pipetting system. […] After shaking and mixing, centrifuging was performed. A reaction was carried out at 30° C. in the dark for 1.5 hours.
(§3) The data were analyzed as follows:
(§4) Phosphorylation ratio=1−{(emission ratio×F100%−C100%)/[C0%−C100%+emission ratio×(F100%−F0%)]}×100;
(§5) Inhibition rate=100×(1−compound phosphorylation ratio/negative control phosphorylation ratio).
(§6) IC50 values were calculated by using GraphPad Prism 5.0 software.

Experiment [2] addresses T2, TRKA (Homo sapiens, UniProt P04629).
T2 construct: purchased life technologies PV3144
Kind of experiment: Z′-LYTE kinase activity assay, TRKA. The experiment is classed as biochemical. The note with it: ATP 400 uM.
Text: as §1, §2, §3, §4, §5, §6

For experiment [3], the target named is T3, BaF3-ETV6-NTRK3 (Homo sapiens, UniProt Q16288).
T3 construct: fused on or other part: P41212 (Transcription factor ETV6)
The experiment is described as follows: Cell proliferation inhibition (CCK-8), BaF3-ETV6-NTRK3 stable strain. The format is cell-based, mouse. Conditions: BaF3-ETV6-NTRK3, 72 hours. The method in brief: (§7)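 Ba/F3 cells stably electroporated with ETV6-NTRK3, CD74-NTRK1 or ETV6-NTRK2, selected with G418 and grown without IL3, then cloned by limiting dilution.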

The target of experiment [4] is T4, TRKC (Homo sapiens, UniProt Q16288).
T4 construct: purchased life technologies PV3617
Kind of experiment: Z′-LYTE kinase activity assay, TRKC. The format is biochemical. The note with it: ATP 50 uM.
Text: as §1, §2, §3, §6

For experiment [5], the target named is T5, BaF3-ETV6-NTRK2 (Homo sapiens, UniProt Q16620).
T5 construct: fused on or other part: P41212 (Transcription factor ETV6)
The experiment is described as follows: Cell proliferation inhibition (CCK-8), BaF3-ETV6-NTRK2 stable strain. The experiment is classed as cell-based, mouse. Conditions: BaF3-ETV6-NTRK2, 72 hours. In short, it runs like this:
as §7

The target of experiment [6] is T6, BaF3-CD74-NTRK1 (Homo sapiens, UniProt P04629).
T6 construct: fused on or other part: P04233 (HLA class II histocompatibility antigen gamma chain)
The experiment is described as follows: Cell proliferation inhibition (CCK-8), BaF3-CD74-NTRK1 stable strain. The note with it: BaF3-CD74-NTRK1, 72 hours. The experiment is classed as cell-based, mouse. In short, it runs like this:
as §7

T2 sequence (P04629 440-796 limits assumed): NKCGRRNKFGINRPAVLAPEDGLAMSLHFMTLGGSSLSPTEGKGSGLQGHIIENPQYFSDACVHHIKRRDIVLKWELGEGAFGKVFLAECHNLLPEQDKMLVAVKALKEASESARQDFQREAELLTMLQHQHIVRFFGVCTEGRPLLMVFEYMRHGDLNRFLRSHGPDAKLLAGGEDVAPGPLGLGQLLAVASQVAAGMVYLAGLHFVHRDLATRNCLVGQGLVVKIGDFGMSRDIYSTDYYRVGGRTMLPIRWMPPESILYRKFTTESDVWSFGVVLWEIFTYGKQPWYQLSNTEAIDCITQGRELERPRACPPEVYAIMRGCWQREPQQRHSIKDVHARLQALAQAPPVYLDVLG
T5 sequence (Q16620 538-822 limits assumed): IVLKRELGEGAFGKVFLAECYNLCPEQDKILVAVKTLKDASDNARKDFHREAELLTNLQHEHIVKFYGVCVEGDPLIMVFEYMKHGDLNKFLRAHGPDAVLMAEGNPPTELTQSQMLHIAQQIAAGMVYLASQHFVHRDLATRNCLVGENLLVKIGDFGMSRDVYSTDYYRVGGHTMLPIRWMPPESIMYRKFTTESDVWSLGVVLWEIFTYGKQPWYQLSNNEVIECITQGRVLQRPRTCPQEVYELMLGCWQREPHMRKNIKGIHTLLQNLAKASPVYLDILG
T1 sequence (Q16620 32-822): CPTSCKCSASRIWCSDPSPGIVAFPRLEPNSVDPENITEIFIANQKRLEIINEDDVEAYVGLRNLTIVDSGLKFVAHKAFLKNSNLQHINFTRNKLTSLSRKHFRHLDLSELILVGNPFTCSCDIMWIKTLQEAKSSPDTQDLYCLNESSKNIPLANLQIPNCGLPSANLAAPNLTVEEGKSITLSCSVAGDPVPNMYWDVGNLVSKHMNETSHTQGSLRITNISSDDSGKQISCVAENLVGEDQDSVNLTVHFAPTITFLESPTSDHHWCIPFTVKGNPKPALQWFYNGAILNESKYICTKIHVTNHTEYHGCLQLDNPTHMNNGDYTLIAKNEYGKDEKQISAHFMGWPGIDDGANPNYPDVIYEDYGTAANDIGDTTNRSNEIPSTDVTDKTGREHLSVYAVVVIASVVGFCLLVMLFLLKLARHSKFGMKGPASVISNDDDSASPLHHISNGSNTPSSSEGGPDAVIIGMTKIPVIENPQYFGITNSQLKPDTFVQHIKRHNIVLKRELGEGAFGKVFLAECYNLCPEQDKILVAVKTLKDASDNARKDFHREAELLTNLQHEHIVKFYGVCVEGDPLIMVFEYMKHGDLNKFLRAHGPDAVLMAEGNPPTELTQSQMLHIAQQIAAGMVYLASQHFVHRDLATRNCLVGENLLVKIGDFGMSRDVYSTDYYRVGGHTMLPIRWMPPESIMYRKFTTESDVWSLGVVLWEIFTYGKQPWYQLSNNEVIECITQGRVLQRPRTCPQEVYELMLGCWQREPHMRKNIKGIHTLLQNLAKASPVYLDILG
T3 sequence (Q16288 whole entry, the tested form may be a part): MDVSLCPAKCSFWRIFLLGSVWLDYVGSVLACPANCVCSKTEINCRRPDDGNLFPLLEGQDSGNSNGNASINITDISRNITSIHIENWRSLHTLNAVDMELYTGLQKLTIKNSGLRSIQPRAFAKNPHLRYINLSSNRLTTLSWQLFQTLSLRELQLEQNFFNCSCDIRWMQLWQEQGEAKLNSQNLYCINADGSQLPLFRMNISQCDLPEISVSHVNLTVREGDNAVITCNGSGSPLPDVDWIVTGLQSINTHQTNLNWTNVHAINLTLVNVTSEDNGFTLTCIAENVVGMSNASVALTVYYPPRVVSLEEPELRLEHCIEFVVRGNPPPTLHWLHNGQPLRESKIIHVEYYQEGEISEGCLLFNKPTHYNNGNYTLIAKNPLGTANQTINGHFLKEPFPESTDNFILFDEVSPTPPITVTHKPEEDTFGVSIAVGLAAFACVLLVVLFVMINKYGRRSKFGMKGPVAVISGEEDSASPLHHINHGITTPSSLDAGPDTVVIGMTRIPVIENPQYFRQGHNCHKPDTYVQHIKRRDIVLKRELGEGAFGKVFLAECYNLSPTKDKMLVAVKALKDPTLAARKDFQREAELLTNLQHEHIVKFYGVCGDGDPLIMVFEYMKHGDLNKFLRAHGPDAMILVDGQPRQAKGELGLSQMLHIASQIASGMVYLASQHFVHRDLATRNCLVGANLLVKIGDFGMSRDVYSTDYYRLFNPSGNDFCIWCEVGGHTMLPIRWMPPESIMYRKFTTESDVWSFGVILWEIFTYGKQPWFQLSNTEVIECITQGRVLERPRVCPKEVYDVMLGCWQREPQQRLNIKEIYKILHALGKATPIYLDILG
T4 sequence (Q16288 32-839): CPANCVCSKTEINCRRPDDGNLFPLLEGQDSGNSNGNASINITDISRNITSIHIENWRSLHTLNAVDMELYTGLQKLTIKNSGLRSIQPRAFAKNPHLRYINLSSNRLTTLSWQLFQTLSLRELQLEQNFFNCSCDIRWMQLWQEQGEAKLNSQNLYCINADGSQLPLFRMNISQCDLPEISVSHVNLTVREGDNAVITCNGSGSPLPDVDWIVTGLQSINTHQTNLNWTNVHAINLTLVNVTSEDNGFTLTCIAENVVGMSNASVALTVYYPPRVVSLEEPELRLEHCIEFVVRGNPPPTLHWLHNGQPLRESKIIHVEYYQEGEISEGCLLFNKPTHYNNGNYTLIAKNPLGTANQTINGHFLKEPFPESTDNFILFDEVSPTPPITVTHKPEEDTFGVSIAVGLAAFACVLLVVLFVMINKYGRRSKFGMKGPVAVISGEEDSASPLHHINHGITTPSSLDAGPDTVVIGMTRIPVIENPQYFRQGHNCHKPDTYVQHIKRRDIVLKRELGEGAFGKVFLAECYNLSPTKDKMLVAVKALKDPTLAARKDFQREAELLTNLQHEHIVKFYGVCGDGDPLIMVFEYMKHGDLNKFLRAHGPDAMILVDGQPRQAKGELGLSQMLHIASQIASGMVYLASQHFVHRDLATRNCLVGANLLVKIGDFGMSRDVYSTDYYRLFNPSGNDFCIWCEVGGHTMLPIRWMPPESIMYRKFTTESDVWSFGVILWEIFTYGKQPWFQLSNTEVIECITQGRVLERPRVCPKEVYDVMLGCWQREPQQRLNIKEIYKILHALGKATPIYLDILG
T6 sequence (P04629 510-796 limits assumed): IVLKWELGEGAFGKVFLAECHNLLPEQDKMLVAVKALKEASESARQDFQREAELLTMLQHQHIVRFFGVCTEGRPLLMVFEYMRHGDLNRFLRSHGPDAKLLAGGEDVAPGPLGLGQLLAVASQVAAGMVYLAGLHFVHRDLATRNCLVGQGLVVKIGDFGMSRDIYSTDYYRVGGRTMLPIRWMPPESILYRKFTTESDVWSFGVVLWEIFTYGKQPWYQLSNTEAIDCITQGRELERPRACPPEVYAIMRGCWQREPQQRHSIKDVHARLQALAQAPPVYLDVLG

For orientation: IC50 means the concentration needed to halve the response being measured. Low values mean greater potency in that assay, high ones weaker potency in that assay. Consider `Fc1cc(F)cc(Cc2ccc3[nH]nc(/C=C/c4ccccc4)c3c2)c1` [DYX-07, (E)-5-(3,5-difluorobenzyl)-3-styryl-1H-indazole], for which the half-maximal inhibitory concentration (IC50) in experiment [1] is 40.3 nM; in experiment [2], 10.6 nM; in experiment [3], 284 nM; in experiment [4] it was 104 nM; in experiment [5], 968 nM; in experiment [6] it was 211 nM.

On to `Cc1cccc(/C=C/c2n[nH]c3ccc(Cc4cc(F)cc(F)c4)cc23)n1` [DYX-09, (E)-5-(3,5-difluorobenzyl)-3-(2-(6-methylpyridin-2-yl)vinyl)-1H-indazole], for which the IC50 in experiment [1] was found to be 14.8 nM; in experiment [2] it was 10.6 nM; in experiment [3], 168 nM; in experiment [4], 4.2 nM; in experiment [5] it was 98.4 nM; in experiment [6], 69 nM.

With `Fc1cc(F)cc(Cc2ccc3[nH]nc(/C=C/c4ccccc4F)c3c2)c1` [DYX-10, (E)-5-(3,5-difluorobenzyl)-3-(2-fluorostyryl)-1H-indazole], the concentration for half-maximal inhibition (IC50) in experiment [1] turned out to be 3.2 nM; in experiment [2] it was 9.2 nM; in experiment [3], 394 nM; in experiment [4] it was 18.8 nM; in experiment [5], 777 nM; in experiment [6] it was 630 nM.

As to `C(#Cc1n[nH]c2ccc(Cc3ccccc3)cc12)c1ccccn1` [DYX-014, 5-benzyl-3-(pyridin-2-ylethynyl)-1H-indazole], the IC50 was determined as 321 nM in experiment [1]; 100 nM in experiment [2]; 3030 nM in experiment [3]; 95 nM in experiment [4]; 4700 nM in experiment [5]; 8310 nM in experiment [6].

Turning to `Fc1ccccc1Cc1ccc2[nH]nc(C#Cc3ccccn3)c2c1` [DYX-021, 5-(2-fluorobenzyl)-3-(pyridin-2-ylethynyl)-1H-indazole], the IC50 in experiment [1] stood at 360 nM; in experiment [2] it was 110 nM; in experiment [3], 2600 nM; in experiment [4], 79 nM; in experiment [5] it was 3090 nM; in experiment [6], 4930 nM.

For `Fc1cccc(Cc2ccc3[nH]nc(C#Cc4ccccn4)c3c2)c1` [DYX-025, 5-(3-fluorobenzyl)-3-(pyridin-2-ylethynyl)-1H-indazole], the IC50 came to 82 nM in experiment [1]; 26 nM in experiment [2]; 917 nM in experiment [3]; 12 nM in experiment [4]; 2560 nM in experiment [5]; 2330 nM in experiment [6].

As for `Fc1ccc(Cc2ccc3[nH]nc(C#Cc4ccccn4)c3c2)cc1` [DYX-027, 5-(4-fluorobenzyl)-3-(pyridin-2-ylethynyl)-1H-indazole], the IC50 in experiment [1] is above 1000 nM; in experiment [2], above 1000 nM; in experiment [3], above 10000 nM; in experiment [4], above 1000 nM; in experiment [5], above 10000 nM; in experiment [6], above 10000 nM.

As to `Fc1ccccc1Cc1ccc2[nH]nc(/C=C/c3ccccn3)c2c1` [DYX-032, (E)-5-(2-fluorobenzyl)-3-(2-(pyridin-2-yl)vinyl)-1H-indazole], the IC50 in experiment [1] worked out at 56.1 nM; in experiment [2] it was 14.5 nM; in experiment [3] it was 718 nM; in experiment [4], 12 nM; in experiment [5] it was 2340 nM; in experiment [6] it was 1920 nM.

Regarding `Fc1cccc(Cc2ccc3[nH]nc(/C=C/c4ccccn4)c3c2)c1` [DYX-038, (E)-5-(3-fluorobenzyl)-3-(2-(pyridin-2-yl)vinyl)-1H-indazole], the IC50 was 32.4 nM in experiment [1]; 9.3 nM in experiment [2]; 133 nM in experiment [3]; 1.9 nM in experiment [4]; 335 nM in experiment [5]; 239 nM in experiment [6].

`Fc1ccc(F)c(Cc2ccc3[nH]nc(C#Cc4ccccn4)c3c2)c1` [DYX-041, 5-(2,5-difluorobenzyl)-3-(pyridin-2-ylethynyl)-1H-indazole]: the concentration for half-maximal inhibition (IC50) in experiment [1] came out at 40 nM; in experiment [2] it was 44 nM; in experiment [3], 796 nM; in experiment [4] it was 8 nM; in experiment [5], 1990 nM; in experiment [6], 724 nM.

For the molecule `Fc1ccc(Cc2ccc3[nH]nc(/C=C/c4ccccn4)c3c2)cc1` [DYX-042, (E)-5-(4-fluorobenzyl)-3-(2-(pyridin-2-yl)vinyl)-1H-indazole], the IC50 in experiment [1] is 281 nM; in experiment [2], 251 nM; in experiment [3] it was 8380 nM; in experiment [4], 114 nM; in experiment [5] it was above 10000 nM; in experiment [6] it was 8710 nM.

Consider `Fc1ccc(Cc2ccc3[nH]nc(C#Cc4ccccn4)c3c2)cc1F` [DYX-044, 5-(3,4-difluorobenzyl)-3-(pyridin-2-ylethynyl)-1H-indazole], for which the half-maximal inhibitory concentration (IC50) is above 1000 nM in experiment [1]; 501 nM in experiment [2]; above 10000 nM in experiment [3]; 652 nM in experiment [4]; above 10000 nM in experiment [5]; above 10000 nM in experiment [6].

On to `C(=C\c1n[nH]c2ccc(Cc3ccccc3)cc12)/c1ccccn1` [DYX-048, (E)-5-benzyl-3-(2-(pyridin-2-yl)vinyl)-1H-indazole], for which the IC50 in experiment [1] turned out to be 15.3 nM; in experiment [2], 33.2 nM; in experiment [3] it was 959 nM; in experiment [4], 9.7 nM; in experiment [5], 168 nM; in experiment [6] it was 803 nM.

As for `Fc1ccc(Cc2ccc3[nH]nc(C#Cc4ccccn4)c3c2)c(F)c1` [DYX-051, 5-(2,4-difluorobenzyl)-3-(pyridin-2-ylethynyl)-1H-indazole], the half-inhibitory concentration (IC50) in experiment [1] was above 1000 nM; in experiment [2], above 1000 nM; in experiment [3], above 10000 nM; in experiment [4], above 1000 nM; in experiment [5], above 10000 nM; in experiment [6], above 10000 nM.

Consider `Fc1ccc(F)c(Cc2ccc3[nH]nc(/C=C/c4ccccn4)c3c2)c1` [DYX-054, (E)-5-(2,5-difluorobenzyl)-3-(2-(pyridin-2-yl)vinyl)-1H-indazole], for which the IC50 in experiment [1] is 12.2 nM; in experiment [2] it was 7.1 nM; in experiment [3], 145 nM; in experiment [4], 5.4 nM; in experiment [5] it was 329 nM; in experiment [6], 546 nM.

With `Fc1ccc(Cc2ccc3[nH]nc(/C=C/c4ccccn4)c3c2)cc1F` [DYX-059, (E)-5-(3,4-difluorobenzyl)-3-(2-(pyridin-2-yl)vinyl)-1H-indazole], the IC50 in experiment [1] was above 1000 nM; in experiment [2], 250 nM; in experiment [3], 3250 nM; in experiment [4], 160 nM; in experiment [5] it was 8820 nM; in experiment [6], 7940 nM.

For `Fc1ccc(Cc2ccc3[nH]nc(/C=C/c4ccccn4)c3c2)c(F)c1` [DYX-060, (E)-5-(2,4-difluorobenzyl)-3-(2-(pyridin-2-yl)vinyl)-1H-indazole], the IC50 was 375 nM in experiment [1]; 818 nM in experiment [2]; above 10000 nM in experiment [3]; 620 nM in experiment [4]; above 10000 nM in experiment [5]; above 10000 nM in experiment [6].

As to `Fc1cccc(F)c1Cc1ccc2[nH]nc(C#Cc3ccccn3)c2c1` [DYX-071, 5-(2,6-difluorobenzyl)-3-(pyridin-2-ylethynyl)-1H-indazole], the IC50 is 385 nM in experiment [1]; 217 nM in experiment [2]; 2740 nM in experiment [3]; 113 nM in experiment [4]; 2890 nM in experiment [5]; 7730 nM in experiment [6].

For `Fc1cccc(Cc2ccc3[nH]nc(C#Cc4ccccn4)c3c2)c1F` [DYX-074, 5-(2,3-difluorobenzyl)-3-(pyridin-2-ylethynyl)-1H-indazole], the IC50 in experiment [1] was determined as 435 nM; in experiment [2], 72 nM; in experiment [3], 2200 nM; in experiment [4], 41 nM; in experiment [5] it was 2830 nM; in experiment [6], 2500 nM.

Turning to `Fc1cc(Cc2ccc3[nH]nc(C#Cc4ccccn4)c3c2)cc(F)c1F` [DYX-075, 3-(pyridin-2-ylethynyl)-5-(3,4,5-trifluorobenzyl)-1H-indazole], the concentration for half-maximal inhibition (IC50) in experiment [1] was above 1000 nM; in experiment [2], above 1000 nM; in experiment [3] it was above 10000 nM; in experiment [4], above 1000 nM; in experiment [5], above 10000 nM; in experiment [6], 2480 nM.

Take `Fc1cccc(F)c1Cc1ccc2[nH]nc(/C=C/c3ccccn3)c2c1` [DYX-081, (E)-5-(2,6-difluorobenzyl)-3-(2-(pyridin-2-yl)vinyl)-1H-indazole]: the IC50 in experiment [1] came out at 170 nM; in experiment [2] it was 39.8 nM; in experiment [3], 820 nM; in experiment [4], 26.6 nM; in experiment [5], 1020 nM; in experiment [6], 1440 nM.
